Results as given in ChEMBL document CHEMBL1201862, “PubChem BioAssay data set” (2004).
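Step 1: Grow cells in 96-well plates. Step 2: Expose to compound for 48 hours at 5 concentrations. Step 3: Interpolate endpoints linearly; if unreached, use highest concentration. GI50 is the concentration that inhibits growth by half.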 The source made the active and inactive calls. Cut-off read from the data, not from the text of the source: active = GI50 up to about 1.1 µM and inactive = higher.

What was measured:
Experiment in all cases: DTP human tumour cell line panel, 48 h
MCF7 = tested on: MCF7
DU-145 = tested on: DU-145
SNB-19 = tested on: SNB-19
SK-MEL-5 = tested on: SK-MEL-5
SR = tested on: SR
SK-OV-3 = tested on: SK-OV-3
RXF 393 = tested on: RXF 393
NCI/ADR-RES = tested on: NCI/ADR-RES
ACHN = tested on: ACHN
SN12C = tested on: SN12C
786-0 = tested on: 786-0
UACC-62 = tested on: UACC-62
K562 = tested on: K562
SW-620 = tested on: SW-620
CCRF-CEM = tested on: CCRF-CEM
HOP-62 = tested on: HOP-62
A549 = tested on: A549
COLO 205 = tested on: COLO 205
OVCAR-8 = tested on: OVCAR-8
HCC 2998 = tested on: HCC 2998
SF-268 = tested on: SF-268
HCT-116 = tested on: HCT-116
SK-MEL-28 = tested on: SK-MEL-28
MOLT-4 = tested on: MOLT-4
HT-29 = tested on: HT-29
A498 = tested on: A498
CAKI-1 = tested on: CAKI-1
UO-31 = tested on: UO-31
LOX IMVI = tested on: LOX IMVI
BT-549 = tested on: BT-549
MDA-N = tested on: MDA-N
RPMI-8226 = tested on: RPMI-8226
OVCAR-3 = tested on: OVCAR-3
T47D = tested on: T47D
UACC-257 = tested on: UACC-257
NCI-H226 = tested on: NCI-H226
HL-60 = tested on: HL-60
MDA-MB-435 = tested on: MDA-MB-435
HCT-15 = tested on: HCT-15
SNB-75 = tested on: SNB-75
MDA-MB-231 = tested on: MDA-MB-231
NCI-H460 = tested on: NCI-H460
OVCAR-4 = tested on: OVCAR-4
TK-10 = tested on: TK-10
OVCAR-5 = tested on: OVCAR-5
SF-539 = tested on: SF-539
NCI-H23 = tested on: NCI-H23
Malme-3M = tested on: Malme-3M
IGROV-1 = tested on: IGROV-1
SF-295 = tested on: SF-295
U-251 = tested on: U-251
KM12 = tested on: KM12
EKVX = tested on: EKVX
M14 = tested on: M14
NCI-H522 = tested on: NCI-H522
SK-MEL-2 = tested on: SK-MEL-2
HOP-92 = tested on: HOP-92
PC-3 = tested on: PC-3

Structure (SMILES): CN1CCN(c2cc3c(cc2F)c(=O)c(C(=O)O)cn3C2CC2)CC1CC#N (centres undefined)
- GI50 (MCF7): > 100 µM (inactive)
- GI50 (DU-145): > 100 µM (inactive)
- GI50 (SNB-19): > 100 µM (inactive)
- GI50 (SK-MEL-5): > 100 µM (inactive)
- GI50 (SR): > 100 µM (inactive)
- GI50 (SK-OV-3): > 100 µM (inactive)
- GI50 (RXF 393): > 100 µM (inactive)
- GI50 (NCI/ADR-RES): > 100 µM (inactive)
- GI50 (ACHN): > 100 µM (inactive)
- GI50 (SN12C): > 100 µM (inactive)
- GI50 (786-0): > 100 µM (inactive)
- GI50 (UACC-62): > 100 µM (inactive)
- GI50 (K562): > 100 µM (inactive)
- GI50 (SW-620): > 100 µM (inactive)
- GI50 (CCRF-CEM): > 100 µM (inactive)
- GI50 (HOP-62): > 100 µM (inactive)
- GI50 (A549): > 100 µM (inactive)
- GI50 (COLO 205): > 100 µM (inactive)
- GI50 (OVCAR-8): > 100 µM (inactive)
- GI50 (HCC 2998): > 100 µM (inactive)
- GI50 (SF-268): > 100 µM (inactive)
- GI50 (HCT-116): > 100 µM (inactive)
- GI50 (SK-MEL-28): > 100 µM (inactive)
- GI50 (MOLT-4): > 100 µM (inactive)
- GI50 (HT-29): > 100 µM (inactive)
- GI50 (A498): > 100 µM (inactive)
- GI50 (CAKI-1): > 100 µM (inactive)
- GI50 (UO-31): > 100 µM (inactive)
- GI50 (LOX IMVI): > 100 µM (inactive)
- GI50 (BT-549): > 100 µM (inactive)
- GI50 (MDA-N): > 100 µM (inactive)
- GI50 (RPMI-8226): > 100 µM (inactive)
- GI50 (OVCAR-3): > 100 µM (inactive)
- GI50 (T47D): > 100 µM (inactive)
- GI50 (UACC-257): > 100 µM (inactive)
- GI50 (NCI-H226): > 100 µM (inactive)
- GI50 (HL-60): > 100 µM (inactive)
- GI50 (MDA-MB-435): > 100 µM (inactive)
- GI50 (HCT-15): > 100 µM
- GI50 (SNB-75): > 100 µM (inactive)
- GI50 (MDA-MB-231): > 100 µM (inactive)
- GI50 (NCI-H460): > 100 µM (inactive)
- GI50 (OVCAR-4): > 100 µM (inactive)
- GI50 (TK-10): > 100 µM (inactive)
- GI50 (OVCAR-5): > 100 µM (inactive)
- GI50 (SF-539): > 100 µM (inactive)
- GI50 (NCI-H23): > 100 µM (inactive)
- GI50 (Malme-3M): > 100 µM (inactive)
- GI50 (IGROV-1): > 100 µM (inactive)
- GI50 (SF-295): > 100 µM (inactive)
- GI50 (U-251): > 100 µM (inactive)
- GI50 (KM12): > 100 µM (inactive)
- GI50 (EKVX): > 100 µM (inactive)

Structure (SMILES): O=c1oc2ccc(Cl)cc2cc1-c1cn2cc(Cl)ccc2n1
- GI50 (MCF7): 1.64 µM (inactive)
- GI50 (DU-145): > 100 µM (inactive)
- GI50 (SK-MEL-5): > 100 µM (inactive)
- GI50 (SR): 0.473 µM (active)
- GI50 (SK-OV-3): > 100 µM (inactive)
- GI50 (RXF 393): > 100 µM (inactive)
- GI50 (NCI/ADR-RES): 11.4 µM (inactive)
- GI50 (ACHN): > 100 µM (inactive)
- GI50 (M14): 4.46 µM (inactive)
- GI50 (SN12C): > 89.1 µM (inactive)
- GI50 (786-0): > 42.4 µM (inactive)
- GI50 (UACC-62): 0.574 µM (active)
- GI50 (K562): 5.05 µM (inactive)
- GI50 (SW-620): > 32.3 µM (inactive)
- GI50 (NCI-H522): 0.74 µM (active)
- GI50 (CCRF-CEM): > 28.8 µM (inactive)
- GI50 (HOP-62): > 69.3 µM (inactive)
- GI50 (A549): 14.1 µM (inactive)
- GI50 (SK-MEL-2): > 100 µM (inactive)
- GI50 (COLO 205): > 100 µM (inactive)
- GI50 (OVCAR-8): > 57 µM (inactive)
- GI50 (HCC 2998): > 73.6 µM (inactive)
- GI50 (SF-268): > 80.9 µM (inactive)
- GI50 (HCT-116): 6.3 µM (inactive)
- GI50 (SK-MEL-28): > 100 µM (inactive)
- GI50 (MOLT-4): 6.46 µM (inactive)
- GI50 (HT-29): > 24.3 µM (inactive)
- GI50 (CAKI-1): > 22.4 µM (inactive)
- GI50 (UO-31): > 44 µM (inactive)
- GI50 (LOX IMVI): > 28.2 µM (inactive)
- GI50 (BT-549): 15.1 µM (inactive)
- GI50 (MDA-N): 0.368 µM (active)
- GI50 (RPMI-8226): > 100 µM (inactive)
- GI50 (OVCAR-3): 5.3 µM (inactive)
- GI50 (T47D): > 100 µM (inactive)
- GI50 (UACC-257): > 100 µM (inactive)
- GI50 (NCI-H226): > 100 µM (inactive)
- GI50 (HL-60): 3.4 µM (inactive)
- GI50 (MDA-MB-435): 0.24 µM (active)
- GI50 (HCT-15): 2.36 µM
- GI50 (SNB-75): > 100 µM (inactive)
- GI50 (MDA-MB-231): > 70.3 µM (inactive)
- GI50 (NCI-H460): 14.4 µM (inactive)
- GI50 (OVCAR-4): > 100 µM (inactive)
- GI50 (TK-10): > 100 µM (inactive)
- GI50 (OVCAR-5): > 100 µM (inactive)
- GI50 (SF-539): > 100 µM (inactive)
- GI50 (NCI-H23): > 100 µM (inactive)
- GI50 (HOP-92): > 100 µM (inactive)
- GI50 (Malme-3M): 0.698 µM (active)
- GI50 (PC-3): > 100 µM (inactive)
- GI50 (IGROV-1): > 25.8 µM (inactive)
- GI50 (SF-295): 10.1 µM (inactive)
- GI50 (U-251): > 49.3 µM (inactive)
- GI50 (KM12): 2.54 µM (inactive)
- GI50 (EKVX): > 37.3 µM (inactive)
